# Laboratory results as given in US20200392158A1, “INHIBITORS OF LEUCINE RICH REPEAT KINASE 2” (GLAXOSMITHKLINE INTELLECTUAL PROPERTY DEVELOPMENT LIMITED, priority 2017, published 2020).
# Where a name gives a salt, the structure may show the parent alone.
# Assays:
# [1] = molecular target: T1, full length G2019 human LRRK2 (Homo sapiens, UniProt Q5S007, R50H); experiment: Full length G2019 human LRRK2 inhibition mass spectrometry assay; assay type: biochemical; conditions: LRRKtide to phospho-LRRKtide conversion, RapidFire MS, 2 mM ATP
# T1 construct: made in house; host or cells: HEK293 6E cells transduced with BacMam virus (virus generated in Sf9 cells)
# T1 sequence (Q5S007 with tags, fused parts or gaps R50H): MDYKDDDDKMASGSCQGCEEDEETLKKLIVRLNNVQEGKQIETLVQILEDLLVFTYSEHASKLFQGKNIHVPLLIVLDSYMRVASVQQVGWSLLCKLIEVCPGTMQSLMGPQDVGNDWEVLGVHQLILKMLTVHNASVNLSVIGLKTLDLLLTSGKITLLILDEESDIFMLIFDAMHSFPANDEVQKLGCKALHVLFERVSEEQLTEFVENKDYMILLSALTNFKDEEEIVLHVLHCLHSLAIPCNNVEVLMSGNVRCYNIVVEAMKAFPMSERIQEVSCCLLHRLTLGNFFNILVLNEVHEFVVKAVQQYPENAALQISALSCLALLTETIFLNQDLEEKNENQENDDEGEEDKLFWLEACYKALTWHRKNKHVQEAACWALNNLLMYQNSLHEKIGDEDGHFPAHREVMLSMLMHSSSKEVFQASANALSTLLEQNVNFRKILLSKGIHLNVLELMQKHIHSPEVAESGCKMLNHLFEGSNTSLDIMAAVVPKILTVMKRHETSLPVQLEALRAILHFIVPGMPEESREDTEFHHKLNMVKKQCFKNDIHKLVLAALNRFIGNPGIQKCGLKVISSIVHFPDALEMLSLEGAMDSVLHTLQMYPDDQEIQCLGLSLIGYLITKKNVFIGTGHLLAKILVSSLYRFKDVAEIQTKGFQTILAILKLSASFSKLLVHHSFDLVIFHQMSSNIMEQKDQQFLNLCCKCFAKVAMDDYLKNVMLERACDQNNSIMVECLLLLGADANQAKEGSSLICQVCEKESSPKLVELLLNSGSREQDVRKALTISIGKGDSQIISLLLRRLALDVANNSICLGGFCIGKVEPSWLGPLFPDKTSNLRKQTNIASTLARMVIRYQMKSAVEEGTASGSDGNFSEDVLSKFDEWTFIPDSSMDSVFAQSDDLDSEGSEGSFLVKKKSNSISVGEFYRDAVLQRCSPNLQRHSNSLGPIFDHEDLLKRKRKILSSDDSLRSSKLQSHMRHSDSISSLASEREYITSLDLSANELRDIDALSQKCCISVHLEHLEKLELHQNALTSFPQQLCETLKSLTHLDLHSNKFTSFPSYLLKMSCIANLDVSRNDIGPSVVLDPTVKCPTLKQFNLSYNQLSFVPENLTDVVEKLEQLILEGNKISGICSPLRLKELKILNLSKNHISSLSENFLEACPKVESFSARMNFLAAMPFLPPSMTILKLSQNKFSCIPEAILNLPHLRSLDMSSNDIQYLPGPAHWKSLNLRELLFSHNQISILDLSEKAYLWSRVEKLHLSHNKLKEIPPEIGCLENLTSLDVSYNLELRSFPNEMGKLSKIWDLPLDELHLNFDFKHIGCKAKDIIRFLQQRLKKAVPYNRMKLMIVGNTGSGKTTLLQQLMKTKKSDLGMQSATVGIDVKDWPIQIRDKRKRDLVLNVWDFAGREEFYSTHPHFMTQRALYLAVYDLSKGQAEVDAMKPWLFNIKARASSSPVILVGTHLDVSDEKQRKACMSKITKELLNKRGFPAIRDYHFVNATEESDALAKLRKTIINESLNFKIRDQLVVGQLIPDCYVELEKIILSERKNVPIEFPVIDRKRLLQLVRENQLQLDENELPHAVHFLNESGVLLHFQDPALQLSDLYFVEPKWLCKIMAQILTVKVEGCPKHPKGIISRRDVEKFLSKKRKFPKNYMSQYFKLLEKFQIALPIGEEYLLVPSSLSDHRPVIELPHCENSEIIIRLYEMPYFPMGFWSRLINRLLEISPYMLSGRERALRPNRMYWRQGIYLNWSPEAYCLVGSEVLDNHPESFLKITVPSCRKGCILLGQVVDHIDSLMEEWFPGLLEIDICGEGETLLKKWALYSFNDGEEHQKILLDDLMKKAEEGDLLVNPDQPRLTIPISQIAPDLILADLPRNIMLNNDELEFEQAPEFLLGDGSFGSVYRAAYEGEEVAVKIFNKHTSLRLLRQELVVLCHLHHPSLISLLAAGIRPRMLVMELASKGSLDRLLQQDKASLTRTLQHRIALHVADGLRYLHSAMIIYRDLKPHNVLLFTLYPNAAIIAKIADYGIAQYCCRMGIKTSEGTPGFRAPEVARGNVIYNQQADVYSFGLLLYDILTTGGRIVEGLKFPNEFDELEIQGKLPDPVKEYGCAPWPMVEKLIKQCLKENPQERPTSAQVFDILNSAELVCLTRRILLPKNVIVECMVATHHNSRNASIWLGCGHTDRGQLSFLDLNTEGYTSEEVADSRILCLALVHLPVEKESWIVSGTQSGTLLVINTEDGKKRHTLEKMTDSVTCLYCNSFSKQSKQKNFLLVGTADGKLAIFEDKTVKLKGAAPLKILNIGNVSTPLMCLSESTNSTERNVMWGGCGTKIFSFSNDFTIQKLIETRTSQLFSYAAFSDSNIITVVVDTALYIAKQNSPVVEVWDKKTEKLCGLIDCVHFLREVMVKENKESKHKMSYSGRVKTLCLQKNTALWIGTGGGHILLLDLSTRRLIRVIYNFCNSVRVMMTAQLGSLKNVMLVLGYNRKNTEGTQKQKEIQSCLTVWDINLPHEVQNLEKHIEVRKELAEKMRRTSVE
# In short: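 Inhibition taken as reduced LRRKtide phosphorylation, quantified by RapidFire-coupled triple-quadrupole MS as product/(product+substrate) peak area. Reaction: 2 mM ATP, 25 μM peptide, ~25 nM full-length G2019 Flag-LRRK2, Hepes pH 7.2 buffer, room temperature for 1 h. 11-point 1-in-4 dilutions from 100 μM; logistic fit gives IC50, reported as pIC50.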
# [2] = molecular target: T2, LRRK2 kinase in SH-SY5Y cells over-expressing recombinant full length LRRK2 (Homo sapiens, UniProt Q5S007); experiment: Recombinant cellular LRRK2 AlphaScreen assay (LRRK2 Ser935 phosphorylation); assay type: cell-based; conditions: 60 min
# T2 construct: A BacMam virus expressing full length recombinant LRRK2 was purchased from Invitrogen; host or cells: SH-SY5Y human neuroblastoma cells transduced with BacMam LRRK2 virus
# T2 sequence (Q5S007 whole entry): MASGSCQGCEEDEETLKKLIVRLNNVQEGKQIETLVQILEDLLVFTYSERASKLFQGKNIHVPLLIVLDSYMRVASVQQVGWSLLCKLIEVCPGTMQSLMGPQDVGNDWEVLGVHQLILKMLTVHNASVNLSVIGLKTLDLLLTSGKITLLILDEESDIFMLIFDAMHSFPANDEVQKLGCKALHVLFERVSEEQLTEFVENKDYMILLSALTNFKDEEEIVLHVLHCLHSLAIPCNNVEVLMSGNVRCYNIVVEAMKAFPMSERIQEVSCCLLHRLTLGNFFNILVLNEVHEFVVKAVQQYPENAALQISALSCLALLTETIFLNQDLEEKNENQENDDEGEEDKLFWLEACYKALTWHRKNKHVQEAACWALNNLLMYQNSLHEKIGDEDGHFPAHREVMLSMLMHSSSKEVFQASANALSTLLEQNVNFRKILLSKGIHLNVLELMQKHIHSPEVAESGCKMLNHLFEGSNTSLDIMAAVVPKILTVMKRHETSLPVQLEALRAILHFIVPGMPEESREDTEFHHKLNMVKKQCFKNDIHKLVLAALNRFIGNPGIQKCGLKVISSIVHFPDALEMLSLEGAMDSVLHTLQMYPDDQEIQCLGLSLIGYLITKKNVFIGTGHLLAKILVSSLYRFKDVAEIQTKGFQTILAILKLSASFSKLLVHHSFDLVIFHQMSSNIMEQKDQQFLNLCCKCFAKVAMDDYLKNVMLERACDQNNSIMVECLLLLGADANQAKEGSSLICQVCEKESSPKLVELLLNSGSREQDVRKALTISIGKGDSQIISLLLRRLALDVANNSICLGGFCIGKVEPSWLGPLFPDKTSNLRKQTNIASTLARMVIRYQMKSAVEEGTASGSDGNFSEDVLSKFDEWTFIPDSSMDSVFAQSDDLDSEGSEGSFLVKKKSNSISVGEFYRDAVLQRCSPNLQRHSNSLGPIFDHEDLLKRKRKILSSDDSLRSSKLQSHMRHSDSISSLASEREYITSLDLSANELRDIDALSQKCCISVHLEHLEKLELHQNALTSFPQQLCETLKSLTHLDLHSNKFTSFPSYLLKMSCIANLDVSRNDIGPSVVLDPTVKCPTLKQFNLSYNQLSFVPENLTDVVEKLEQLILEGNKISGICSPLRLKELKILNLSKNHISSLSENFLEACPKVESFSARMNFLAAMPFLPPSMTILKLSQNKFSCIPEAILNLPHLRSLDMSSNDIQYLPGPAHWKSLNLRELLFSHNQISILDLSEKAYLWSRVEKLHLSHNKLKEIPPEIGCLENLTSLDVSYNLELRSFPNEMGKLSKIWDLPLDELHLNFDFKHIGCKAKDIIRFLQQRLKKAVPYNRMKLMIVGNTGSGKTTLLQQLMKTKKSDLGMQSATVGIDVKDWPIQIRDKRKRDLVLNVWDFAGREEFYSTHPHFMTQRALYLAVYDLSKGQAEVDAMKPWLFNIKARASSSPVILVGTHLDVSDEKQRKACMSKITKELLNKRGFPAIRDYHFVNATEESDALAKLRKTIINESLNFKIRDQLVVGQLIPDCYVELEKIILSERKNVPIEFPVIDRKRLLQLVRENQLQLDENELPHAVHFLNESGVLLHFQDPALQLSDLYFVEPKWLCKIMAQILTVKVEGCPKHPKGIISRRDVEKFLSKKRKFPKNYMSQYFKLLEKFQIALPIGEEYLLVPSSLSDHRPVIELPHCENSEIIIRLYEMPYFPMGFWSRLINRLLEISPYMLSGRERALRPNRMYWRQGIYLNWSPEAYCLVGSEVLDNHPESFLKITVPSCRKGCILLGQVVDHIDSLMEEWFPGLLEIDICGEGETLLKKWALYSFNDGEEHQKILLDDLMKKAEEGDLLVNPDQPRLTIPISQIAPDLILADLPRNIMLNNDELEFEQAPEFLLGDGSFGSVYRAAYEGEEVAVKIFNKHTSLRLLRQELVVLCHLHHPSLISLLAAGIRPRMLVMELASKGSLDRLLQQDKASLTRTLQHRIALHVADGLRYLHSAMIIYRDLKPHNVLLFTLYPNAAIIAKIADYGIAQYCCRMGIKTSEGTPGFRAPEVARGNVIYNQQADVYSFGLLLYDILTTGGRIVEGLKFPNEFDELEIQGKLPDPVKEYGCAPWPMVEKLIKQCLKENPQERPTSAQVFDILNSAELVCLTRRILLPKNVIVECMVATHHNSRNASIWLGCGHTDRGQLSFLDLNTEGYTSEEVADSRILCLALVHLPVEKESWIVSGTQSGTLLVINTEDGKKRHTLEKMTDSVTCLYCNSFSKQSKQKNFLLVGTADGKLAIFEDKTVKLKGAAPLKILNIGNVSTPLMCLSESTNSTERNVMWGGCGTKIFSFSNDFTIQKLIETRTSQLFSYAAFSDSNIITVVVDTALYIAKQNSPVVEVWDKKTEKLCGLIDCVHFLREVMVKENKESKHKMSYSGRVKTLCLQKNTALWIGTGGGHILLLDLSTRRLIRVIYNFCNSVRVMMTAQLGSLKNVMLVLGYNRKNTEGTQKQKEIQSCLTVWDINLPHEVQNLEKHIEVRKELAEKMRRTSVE
# In short: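 Read-out is AlphaScreen of LRRK2 pSer935 over total LRRK2 in lysates of SH-SY5Y cells over-expressing full-length LRRK2 via BacMam (24 h transduction). Cells were exposed 60 min at 37 °C to an 11-point 1-in-4 dilution series starting at 10 uM; sigmoidal fit.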
Compound,IC50 [1],IC50 [2]
"Cc1c2c(nn1C1COCCC1(F)F)OCCCNc1nc(ncc1Cl)N2 (racemic) [E364, 14-Chloro-5-(4,4-difluorooxan-3-yl)-4-methyl-8-oxa-2,5,6,12,16,17-hexaazatricyclo[11.3.1.0^3,7]heptadeca-1(16),3,6,13(17),14-pentaene]",≤ 0.1 µM,≤ 0.1 µM
"Cc1c2c(nn1CC1(C)COC1)OCCCNc1nc(ncc1Cl)N2 [E143, 14-Chloro-4-methyl-5-[(3-methyloxetan-3-yl)methyl]-8-oxa-2,5,6,12,16,17-hexaazatricyclo[11.3.1.0^3,7]heptadeca-1(16),3,6, 13(17), 14-pentaene]",,≤ 0.1 µM
"Clc1cnc2nc1NCCCOc1nn(C3CCOC3)c(Cl)c1N2 (stereo not shown) [E144, 4,14-Dichloro-5-(oxolan-3-yl)-8-oxa-2,5,6,12,16,17-hexaaza tricyclo[11.3.1.0^3,7]heptadeca-1(16),3,6,13(17),14-pentaene]",,≤ 0.1 µM
"Cc1c2c(nn1CCN1CCOCC1)OCCCNc1nc(ncc1Cl)N2 [E220, 14-Chloro-4-methyl-5-[2-(morpholin-4-yl)ethyl]-8-oxa-2,5,6,12, 16,17-hexaazatricyclo[11.3.1.0^3,7]heptadeca-1(16),3,6,13(17),14-pentaene]",,≤ 0.1 µM
"Cc1c2c(nn1C1CC3(COC3)C1)OCCCNc1nc(ncc1Cl)N2 [E300, 14-Chloro-4-methyl-5-{2-oxaspiro[3.3]heptan-6-yl}-8-oxa-2,5,6,12,16,17-hexaazatricyclo[11.3.1.0^3,7]heptadeca-1(16),3,6,13(17),14-pentaene]",,≤ 0.1 µM
"Cc1c2c(nn1C1CC(N3C[C@H]4C[C@@H]3CO4)C1)OCCCNc1nc(ncc1Cl)N2 (stereo partly drawn) [E310, 14-Chloro-4-methyl-5-{3-[(1R,4R)-2-oxa-5-azabicyclo[2.2.1]heptan-5-yl]-cyclobutyl}-8-oxa-2,5,6,12,16,17-hexaazatricyclo [11.3.1.0^3,7]heptadeca-1(16),3,6,13(17),14-pentaene]",,≤ 0.1 µM
"Cc1[nH]nc2c1Nc1ncc(Cl)c(n1)NCC(C)CO2 (stereo not shown) [E431, 14-Chloro-4,10-dimethyl-8-oxa-2,5,6,12,16,17-hexaazatricyclo[11.3.1.0^3,7]heptadeca-1(16),3,6,13(17),14-pentaene]",,≤ 0.1 µM
"Cc1c2c(nn1C1(C)CCOCC1)OCCCNc1nc(ncc1Cl)N2 [E436, 14-Chloro-4-methyl-5-(4-methyloxan-4-yl)-8-oxa-2,5,6,12,16,17-hexaazatricyclo[11.3.1.0^3,7]heptadeca-1(16),3,6,13(17),14-pentaene]",,≤ 0.1 µM
"N#Cc1cnc2nc1NCCCOc1nn(C3CCOCC3(F)F)c(Cl)c1N2 (stereo not shown) [E438, 4-Chloro-5-(3,3-difluorooxan-4-yl)-8-oxa-2,5,6,12,16,17-hexaazatricyclo[11.3.1.0^3,7]heptadeca-1(16),3,6,13(17),14-pentaene-14-carbonitrile]",,≤ 0.1 µM
"C[C@@H]1CCOc2nn(C3CN(C4COCCC4(F)F)C3)c(Cl)c2Nc2ncc(Cl)c(n2)N1 (stereo partly drawn) [E440, (11R)-4,14-Dichloro-5-[1-(4,4-difluorooxan-3-yl)azetidin-3-yl]-11-methyl-8-oxa-2,5,6,12,16,17-hexaazatricyclo[11.3.1.0^3,7]heptadeca-1(16),3,6,13(17),14-pentaene, TFA salt]",,≤ 0.1 µM
"Cc1c2c(nn1C1(C#N)CCOCC1)OCCCNc1nc(ncc1Cl)N2 [E450, 4-{14-chloro-4-methyl-8-oxa-2,5,6,12,16,17-hexaazatricyclo[11.3.1.0^3,7]heptadeca-1(17),3,6,13,15-pentaen-5-yl}oxane-4-carbonitrile]",,≤ 0.1 µM
"Cc1c2c(nn1C(C)(C)CO)OCCCNc1nc(ncc1Cl)N2 [E451, 2-{14-Chloro-4-methyl-8-oxa-2,5,6,12,16,17-hexaazatricyclo[11. 3.1.0^3,7]heptadecal 1(16),3,6,13(17),14-pentaen-5-yl}-2-methylpropan-1-ol]",,≤ 0.1 µM
"Cc1c2c(nn1C(C)(C)CO)OCC[C@@H](C)Nc1nc(ncc1Cl)N2 [E452, 2-[(11R)-14-Chloro-4,11-dimethyl-8-oxa-2,5,6,12,16,17-hexaazatricyclo[11.3.1.0^3,7]heptadeca-1(16),3,6,13(17),14-pentaen-5-yl]-2-methylpropan-1-ol]",,≤ 0.1 µM

# Further lines, results first:
IC50 [1],IC50 [2],Compound
≤ 0.1 µM,≤ 0.1 µM,"COC1CNc2nc(ncc2Cl)Nc2c(nn(C3CCOCC3)c2C)OC1 (single isomer, unassigned) [E3, 14-chloro-10-methoxy-4-methyl-5-(oxan-4-yl)-8-oxa-2,5,6,12,16,17-hexaazatricyclo [11.3.1.0^3,7]heptadeca-1(16),3,6,13(17),14-pentaene]"
≤ 0.1 µM,≤ 0.1 µM,"CCC1CCOc2nn(C3CCOCC3)c(C)c2Nc2ncc(Cl)c(n2)N1 (single isomer, unassigned) [E20, 14-chloro-11-ethyl-4-methyl-5-(oxan-4-yl)-8-oxa-2,5,6,12,16,17-hexaazatricyclo[11.3.1.0^3,7]heptadeca-1(16),3,6,13(17),14-pentaene]"
≤ 0.1 µM,≤ 0.1 µM,"Cc1c2c(nn1C1CCOCC1)OCCC(C)Nc1nc(ncc1Br)N2 (single isomer, unassigned) [E30, 14-bromo-4,11-dimethyl-5-(oxan-4-yl)-8-oxa-2,5,6,12,16,17-hexaaza tricyclo[11.3.1.0^3,7]heptadeca-1(16),3,6,13(17),14-pentaene]"
≤ 0.1 µM,≤ 0.1 µM,"Cc1c2c(nn1C1CCOCC1)OCC(C)C(C)Nc1nc(ncc1Cl)N2 (single isomer, unassigned) [E32, 14-chloro-4,10,11-trimethyl-5-(oxan-4-yl)-8-oxa-2,5,6,12,16,17-hexaazatricyclo [11.3.1.0^3,7]heptadeca-1(16),3,6,13(17),14-pentaene]"
,≤ 0.1 µM,"Cc1c2c(nn1C1CCOC(CO)C1)OCC[C@@H](C)Nc1nc(ncc1Cl)N2 (stereo partly drawn) [E331, {4-[(11R)-14-Chloro-4,11-dimethyl-8-oxa-2,5,6,12,16,17-hexaazatricyclo[11.3.1.0^3,7]heptadeca-1(16),3,6,13(17),14-pentaen-5-yl]oxan-2-yl}methanol]"
,≤ 0.1 µM,"Cc1c2c(nn1CC1CCOCC1)OCCCNc1nc(ncc1Cl)N2 [E338, 14-Chloro-4-methyl-5-(oxan-4-ylmethyl)-8-oxa-2,5,6,12,16,17-hexaazatricyclo[11.3.1.0^3,7]heptadeca-1(16),3,6,13(17),14-pentaene]"
,≤ 0.1 µM,"COC1CNc2nc(ncc2Cl)Nc2c(nn(C3CCOCC3)c2Cl)OC1 (stereo not shown) [E339, 4,14-Dichloro-10-methoxy-5-(oxan-4-yl)-8-oxa-2,5,6,12,16,17-hexaazatricyclo[11.3.1.0^3,7]heptadeca-1(16),3,6,13(17),14-pentaene]"
,≤ 0.1 µM,"COC1CNc2cc(ncc2Cl)Nc2c(nn(C3CCOCC3)c2C)OC1 (stereo not shown) [E342, 14-Chloro-10-methoxy-4-methyl-5-(oxan-4-yl)-8-oxa-2,5,6, 12,16-pentaazatricyclo[11.3.1.0^3,7]heptadeca-1(16),3,6,13(17), 14-pentaene]"
,≤ 0.1 µM,"CC1CCOc2nn(C3CCOCC3)c(Cl)c2Nc2ncc(Cl)c(n2)N1 (stereo not shown) [E343, 4,14-Dichloro-11-methyl-5-(oxan-4-yl)-8-oxa-2,5,6,12,16,17-hexaazatricyclo[11.3.1.0^3,7]heptadeca-1(16),3,6,13(17),14-pentaene]"
,≤ 0.1 µM,"Cc1c2c(nn1C1CCOCC1)OCC[C@@H](C)N(C)c1nc(ncc1Cl)N2 [E359, (11R)-14-Chloro-4,11,12-trimethyl-5-(oxan-4-yl)-8-oxa-2,5,6,12,16,17-hexaazatricyclo[11.3.1.0^3,7]heptadeca-1(16),3,6,13(17),14-pentaene]"
,≤ 0.1 µM,"Cc1c2c(nn1C1CCC(F)(F)CC1)OCC[C@@H](C)Nc1nc(ncc1Cl)N2 [E373, (11R)-14-Chloro-5-(4,4-difluorocyclohexyl)-4,11-dimethyl-8-oxa-2,5,6,12,16,17-hexaazatricyclo[11.3.1.0^3,7]heptadeca-1(16),3,6,13 (17),14-pentaene]"
,≤ 0.1 µM,"Cc1c2c(nn1C1CCC(OC(F)F)CC1)OCC[C@@H](C)Nc1nc(ncc1Cl)N2 (stereo partly drawn) [E374, (11R)-14-Chloro-5-[4-(difluoromethoxy)cyclohexyl]-4,11-di methyl-8-oxa-2,5,6,12,16,17-hexaazatricyclo[11.3.1.0^3,7]hepta deca-1(16),3,6,13(17),14-pentaene]"
,≤ 0.1 µM,"COCCN1c2nc(ncc2Cl)Nc2c(nn(C3CCOCC3)c2C)OCC[C@H]1C [E400, (11R)-14-Chloro-12-(2-methoxyethyl)-4,11-dimethyl-5-(oxan-4-yl)-8-oxa-2,5,6,12,16,17-hexaazatricyclo[11.3.1.0^3,7]heptadeca-1(16),3,6,13(17),14-pentaene]"
,≤ 0.1 µM,"Cc1c2c(nn1C1CN(C3COC3)CCO1)OCC[C@@H](C)Nc1nc(ncc1Cl)N2 (stereo partly drawn) [E402, (11R)-14-Chloro-4,11-dimethyl-5-[4-(oxetan-3-yl)morpholin-2-yl]-8-oxa-2,5,6,12,16,17-hexaazatricyclo[11.3.1.0^3,7]heptadeca-1(16),3,6,13(17),14-pentaene]"
,≤ 0.1 µM,"Cc1c2c(nn1C1(C)CCOCC1)OCC[C@@H](C)Nc1nc(ncc1Cl)N2 [E437, (11R)-14-Chloro-4,11-dimethyl-5-(4-methyloxan-4-yl)-8-oxa-2,5,6,12,16,17-hexaazatricyclo[11.3.1.0^3,7]heptadeca-1(16),3,6,13(17),14-pentaene]"
,> 10 µM,"Cc1c2c(nn1C1CCOCC1)OCCCNc1nc(ncc1C(C)(C)C)N2 [E441, 14-tert-Butyl-4-methyl-5-(oxan-4-yl)-8-oxa-2,5,6,12,16,17-hexaazatricyclo[11.3.1.0^3,7]heptadeca-1(16),3,6,13(17),14-pentaene]"
